Numbers after ± are expanded uncertainties.
Assay: mn = molality of the nth substance listed, in mol/kg
Conditions: 101 kPa, Liquid; for viscosity: Capillary tube (Ostwald / Ubbelohde) method; for mass density: Vibrating tube method

SMILES: NC(=O)c1ccccc1O [2-hydroxybenzamide] + C[S+](C)[O-]
- viscosity (293.15 K, m1 = 0.0069): 2.276 ± 0.014 mPa·s
- viscosity (293.15 K, m1 = 0.0091): 2.279 ± 0.014 mPa·s
- viscosity (293.15 K, m1 = 0.0114): 2.282 ± 0.014 mPa·s
- viscosity (293.15 K, m1 = 0.0137): 2.285 ± 0.014 mPa·s
- viscosity (293.15 K, m1 = 0.016): 2.287 ± 0.014 mPa·s
- viscosity (293.15 K, m1 = 0.0183): 2.289 ± 0.014 mPa·s
- viscosity (293.15 K, m1 = 0.0229): 2.294 ± 0.014 mPa·s
- mass density (293.15 K, m1 = 0.0069): 1100.6 ± 0.094 kg/m3
- mass density (293.15 K, m1 = 0.0091): 1100.66 ± 0.094 kg/m3
- mass density (293.15 K, m1 = 0.0114): 1100.72 ± 0.093 kg/m3
- mass density (293.15 K, m1 = 0.0137): 1100.78 ± 0.093 kg/m3
- mass density (293.15 K, m1 = 0.016): 1100.83 ± 0.091 kg/m3
- mass density (293.15 K, m1 = 0.0183): 1100.86 ± 0.091 kg/m3
- mass density (293.15 K, m1 = 0.0229): 1100.92 ± 0.091 kg/m3
- viscosity (298.15 K, m1 = 0.0069): 2.034 ± 0.013 mPa·s
- viscosity (298.15 K, m1 = 0.0091): 2.038 ± 0.013 mPa·s
- viscosity (298.15 K, m1 = 0.0114): 2.042 ± 0.013 mPa·s
- viscosity (298.15 K, m1 = 0.0137): 2.045 ± 0.013 mPa·s
- viscosity (298.15 K, m1 = 0.016): 2.048 ± 0.013 mPa·s
- viscosity (298.15 K, m1 = 0.0183): 2.051 ± 0.013 mPa·s
- viscosity (298.15 K, m1 = 0.0229): 2.056 ± 0.013 mPa·s
- mass density (298.15 K, m1 = 0.0069): 1095.59 ± 0.092 kg/m3
- mass density (298.15 K, m1 = 0.0091): 1095.64 ± 0.09 kg/m3
- mass density (298.15 K, m1 = 0.0114): 1095.68 ± 0.089 kg/m3
- mass density (298.15 K, m1 = 0.0137): 1095.71 ± 0.089 kg/m3
- mass density (298.15 K, m1 = 0.016): 1095.76 ± 0.089 kg/m3
- mass density (298.15 K, m1 = 0.0183): 1095.79 ± 0.088 kg/m3
- mass density (298.15 K, m1 = 0.0229): 1095.8 ± 0.088 kg/m3
- viscosity (303.15 K, m1 = 0.0069): 1.881 ± 0.012 mPa·s
- viscosity (303.15 K, m1 = 0.0091): 1.884 ± 0.012 mPa·s
- viscosity (303.15 K, m1 = 0.0114): 1.887 ± 0.012 mPa·s
- viscosity (303.15 K, m1 = 0.0137): 1.889 ± 0.012 mPa·s
- viscosity (303.15 K, m1 = 0.016): 1.892 ± 0.012 mPa·s
- viscosity (303.15 K, m1 = 0.0183): 1.894 ± 0.012 mPa·s
- viscosity (303.15 K, m1 = 0.0229): 1.899 ± 0.012 mPa·s
- mass density (303.15 K, m1 = 0.0069): 1090.56 ± 0.088 kg/m3
- mass density (303.15 K, m1 = 0.0091): 1090.6 ± 0.088 kg/m3
- mass density (303.15 K, m1 = 0.0114): 1090.63 ± 0.087 kg/m3
- mass density (303.15 K, m1 = 0.0137): 1090.66 ± 0.087 kg/m3
- mass density (303.15 K, m1 = 0.016): 1090.69 ± 0.086 kg/m3
- mass density (303.15 K, m1 = 0.0183): 1090.7 ± 0.086 kg/m3
- mass density (303.15 K, m1 = 0.0229): 1090.73 ± 0.087 kg/m3
- viscosity (308.15 K, m1 = 0.0069): 1.732 ± 0.011 mPa·s
- viscosity (308.15 K, m1 = 0.0091): 1.737 ± 0.011 mPa·s
- viscosity (308.15 K, m1 = 0.0114): 1.742 ± 0.011 mPa·s
- viscosity (308.15 K, m1 = 0.0137): 1.747 ± 0.011 mPa·s
- viscosity (308.15 K, m1 = 0.016): 1.752 ± 0.011 mPa·s
- viscosity (308.15 K, m1 = 0.0183): 1.756 ± 0.011 mPa·s
- viscosity (308.15 K, m1 = 0.0229): 1.763 ± 0.011 mPa·s
- mass density (308.15 K, m1 = 0.0069): 1085.51 ± 0.086 kg/m3
- mass density (308.15 K, m1 = 0.0091): 1085.56 ± 0.086 kg/m3
- mass density (308.15 K, m1 = 0.0114): 1085.59 ± 0.086 kg/m3
- mass density (308.15 K, m1 = 0.0137): 1085.63 ± 0.086 kg/m3
- mass density (308.15 K, m1 = 0.016): 1085.66 ± 0.085 kg/m3
- mass density (308.15 K, m1 = 0.0183): 1085.69 ± 0.085 kg/m3
- mass density (308.15 K, m1 = 0.0229): 1085.72 ± 0.084 kg/m3
- viscosity (310.15 K, m1 = 0.0069): 1.644 ± 0.011 mPa·s
- viscosity (310.15 K, m1 = 0.0091): 1.645 ± 0.011 mPa·s
- viscosity (310.15 K, m1 = 0.0114): 1.646 ± 0.011 mPa·s
- viscosity (310.15 K, m1 = 0.0137): 1.647 ± 0.011 mPa·s
- viscosity (310.15 K, m1 = 0.016): 1.647 ± 0.011 mPa·s
- viscosity (310.15 K, m1 = 0.0183): 1.648 ± 0.011 mPa·s
- viscosity (310.15 K, m1 = 0.0229): 1.649 ± 0.011 mPa·s
- mass density (310.15 K, m1 = 0.0069): 1083.5 ± 0.086 kg/m3
- mass density (310.15 K, m1 = 0.0091): 1083.55 ± 0.085 kg/m3
- mass density (310.15 K, m1 = 0.0114): 1083.58 ± 0.084 kg/m3
- mass density (310.15 K, m1 = 0.0137): 1083.6 ± 0.084 kg/m3
- mass density (310.15 K, m1 = 0.016): 1083.62 ± 0.084 kg/m3
- mass density (310.15 K, m1 = 0.0183): 1083.65 ± 0.084 kg/m3
- mass density (310.15 K, m1 = 0.0229): 1083.66 ± 0.084 kg/m3
- viscosity (313.15 K, m1 = 0.0069): 1.563 ± 0.01 mPa·s
- viscosity (313.15 K, m1 = 0.0091): 1.564 ± 0.01 mPa·s
- viscosity (313.15 K, m1 = 0.0114): 1.565 ± 0.01 mPa·s
- viscosity (313.15 K, m1 = 0.0137): 1.566 ± 0.01 mPa·s
- viscosity (313.15 K, m1 = 0.016): 1.567 ± 0.01 mPa·s
- viscosity (313.15 K, m1 = 0.0183): 1.567 ± 0.01 mPa·s
- viscosity (313.15 K, m1 = 0.0229): 1.569 ± 0.01 mPa·s
- mass density (313.15 K, m1 = 0.0069): 1080.47 ± 0.084 kg/m3
- mass density (313.15 K, m1 = 0.0091): 1080.52 ± 0.084 kg/m3
- mass density (313.15 K, m1 = 0.0114): 1080.55 ± 0.083 kg/m3
- mass density (313.15 K, m1 = 0.0137): 1080.58 ± 0.083 kg/m3
- mass density (313.15 K, m1 = 0.016): 1080.6 ± 0.083 kg/m3
- mass density (313.15 K, m1 = 0.0183): 1080.62 ± 0.083 kg/m3
- mass density (313.15 K, m1 = 0.0229): 1080.64 ± 0.082 kg/m3
